Test results from patent US9387212B2, “Methods for treating Parkinson's disease” (UCB Pharma S.A., priority 2012, dated 2016).

Test system: unilateral 6-OHDA-lesioned rat model of Parkinson's disease
Assay: General activity (distance travelled, rearing counts) in actometers
Type: in vivo
Conditions: Radiprodil 3 mg/kg po, Tozadenant 30 mg/kg po; three-way mixed ANOVA, Tukey p<0.05
Protocol: Subjects: Males Sprague-Dawley rats (Janvier, France), weighing 250-275 g at the time of surgery and 400-450 g at the time of drug testing are used.
On the day of surgery, one week after arrival, rats received unilateral 6-OHDA injection into the right medial forebrain bundle. Each rat was administered with Imipramine HCl (Sigma) 15 minutes before surgery to protect norepinephrinergic (NE) neurons. Rats were anesthetized with Ketamine (Ceva, 75 mg/kg) and Xylazine (Bayer, 10 mg/kg) and placed in stereotaxic frame (David Kopf Instrument). […] Each rat was monitored and handled regularly for 3 weeks to ensure full recovery and acclimation to the experimenters and environment. […]
General activity was recorded within large open-field measuring horizontal and vertical movements and connected to PCs. […] Locomotion was detected and measured by 16 infrared light-beam sensors located on each side of the enclosure at heights of 3 cm. […] Activity counts were recorded by a personal computer. […]
The level of general activity (distance and rearing) measurement in actometers was assessed by three-way mixed ANOVA with the A2A antagonist (2 levels) and the NR2B antagonist (2 levels) as between-group factors and the time as within-subjects factor (6 or 24 levels). […]

For O=C(Nc1ccc2[nH]c(=O)oc2c1)C(=O)N1CCC(Cc2ccc(F)cc2)CC1 [Radiprodil], the “distance (FIG. 1, right graph)” value was “Significant effect”.
